Data: patent US20250129049A1, “1H-PYRAZOLE-3-AMINE DERIVATIVE HAVING BICYCLIC BACKBONE” (Sumitomo Pharma Co., Ltd., priority 2021, published 2025)

Tests used:
hERG current = hERG current (Homo sapiens (Human), UniProt Q12809); test: cell-based
[1] = Liposome encapsulation test; type: physicochemical; conditions: concentration upon compound introduction 2 or 3 mg/mL
Description: 6.48 g of hydrogenated soybean phosphatidylcholine (COATSOME NC-21E, NOF Corporation), 2.32 g of cholesterol (Sigma) and 2.06 g of distearoylphosphatidylethanolamine-methoxypolyethylene glycol 2000 (SUNBRIGHT DSPE-020CN, NOF Corporation) were dissolved in 560 mL of t-butyl alcohol heated to 65° C. The solution was frozen with dry ice/acetone bath and t-butyl alcohol was then removed by evaporation under reduced pressure to obtain a lipid mixture.
200 mL of 250 mM ammonium sulfate solution was added to the lipid mixture. The resulting mixture was heated to 65° C. and dispersed with a homogenizer (ULTRA-TURRAX, IKA) to obtain a crude liposome dispersion. […] A dialysis cassette (Slide-A-Lyzer G2 Dialysis Cassettes 20K MWCO, Thermo Scientific) was used to replace the outer aqueous phase of the liposome with a 10 mM L-histidine buffer/10% sucrose solution (pH 6.5) to obtain an empty liposome solution. The solution was filtered through a 0.22 μm membrane filter, and a 10 mM L-histidine buffer/10% sucrose solution (pH 6.5) was added to adjust the total lipid concentration to be 75 mM (75 μmol/mL) or 50 mM (50 μmol/mL). The prepared amount was increased or decreased appropriately.
2 to 3 mg of the test compound was weighed out. 1 mL of the empty liposome solution with a total lipid concentration of 50 mM was added. An aqueous 1 mol/L hydrochloric acid or 1 mol/L sodium hydroxide solution was added to adjust the pH to 5.5 to 7. […] Insoluble substances, when present, were removed by centrifugation for 5 minutes at 15,000× g.
The liposome encapsulation ratio was calculated as follows.
100 μL of liposome solution was passed through an ultrafiltration filter (Amicon Ultra, 100K, 0.5 mL, Merck), and centrifuged at 4° C. at 15,000×g for 10 minutes. The concentration of the compound in the filtrate after ultrafiltration was measured by HPLC as the unencapsulated compound concentration.
The liposome solution was diluted with a trifluoroacetic acid/water/methanol mixture (0.1/25/75) and was left standing for 10 minutes or longer at 5° C. The solution was centrifuged for 5 minutes at 15,000× g to remove insoluble substances. The compound concentration in the supernatant was measured by HPLC as the compound concentration in the liposome solution.
The encapsulation ratio and the encapsulation efficiency were calculated by the following equations.
HPLC measurement conditions are the following.

[2] = Pharmacokinetic test, intravenous administration to mice; type: in vivo; conditions: female, BALB/c, mouse, plasma, liposome formulations, 1.0 mg/kg i.v., trapezoidal method, 0 hours to last quantifiable time
Description: Blood was collected over time up to 72 hours after administration from the jugular vein under no anesthesia.

ES-2 cells = test: Cell growth suppression experiment (ES-2); type: cell-based; conditions: Homo sapiens, 48 h, cultured 2 days, CellTiter-Glo 3D
Description: ES-2 cells were obtained from the American Type Culture Collection (ATCC). These cells were cultured at 37° C. in the presence of 5% CO2 in a McCoy's 5a medium containing 10% fetal bovine serum and 1% penicillin/streptomycin.
500 cells were seeded for each well in a 384-well plate, and the evaluated compound was added to the final DMSO concentration of 0.1% to culture the cells for 2 days. After completion of the culture, the cell viability rate was calculated using CellTiter-Glo (registered trademark) 3D Reagent (Promega, G968B).

CHK1 kinase = CHK1 kinase (Homo sapiens (Human), UniProt O14757)
SJCRH30 cells = test: Cell growth suppression test on various cancer cell lines: SJCRH30; type: cell-based; conditions: 72 h; SJCRH30 (soft tissue sarcoma), cultured 3 days
Description: (§1) HT1080 cells (derived from soft tissue sarcoma) were cultured at 37° C. in the presence of 5% CO2 in an EMEM medium containing 10% fetal bovine serum and 1% penicillin/streptomycin. SJCRH30 cells (derived from soft tissue sarcoma) and BxPC3 cells (derived from pancreatic cancer) were cultured at 37° C. in the presence of 5% C02 in a McCoy's 5a medium containing 10% fetal bovine serum and 1% penicillin/streptomycin. SW948 cells (derived from colon cancer) were cultured at 37° C. in air in a L-15 medium containing 10% fetal bovine serum and 1% penicillin/streptomycin.
(§2) The cells were seeded for each well in a 96-well plate at 70-90% confluency 96 hours after seeding, the evaluated compound was added to the final DMSO concentration of 0.1%, and the cells were cultured for 3 days. After completion of the culture, the cell viability rate was calculated using CellTiter-Glo (registered trademark) 3D Reagent (Promega, G968B).

HT1080 cells = test: Cell growth suppression test on various cancer cell lines: HT1080; type: cell-based; conditions: Homo sapiens, HT-1080, 72 h; HT1080 (soft tissue sarcoma), cultured 3 days
Description: as §1, §2

SW948 cells = test: Cell growth suppression test on various cancer cell lines: SW948; type: cell-based; conditions: Homo sapiens, 72 h; SW948 (colon cancer), cultured 3 days
Description: as §1, §2

BxPC3 cells = test: Cell growth suppression test on various cancer cell lines: BxPC3; type: cell-based; conditions: Homo sapiens, BXPC-3, 72 h; BxPC3 (pancreatic cancer), cultured 3 days
Description: as §1, §2

hERG = hERG (Homo sapiens (Human), UniProt Q12809); test: in vitro; conditions: CHO cells stably expressing hERG
Chain of hERG (Q12809 whole entry): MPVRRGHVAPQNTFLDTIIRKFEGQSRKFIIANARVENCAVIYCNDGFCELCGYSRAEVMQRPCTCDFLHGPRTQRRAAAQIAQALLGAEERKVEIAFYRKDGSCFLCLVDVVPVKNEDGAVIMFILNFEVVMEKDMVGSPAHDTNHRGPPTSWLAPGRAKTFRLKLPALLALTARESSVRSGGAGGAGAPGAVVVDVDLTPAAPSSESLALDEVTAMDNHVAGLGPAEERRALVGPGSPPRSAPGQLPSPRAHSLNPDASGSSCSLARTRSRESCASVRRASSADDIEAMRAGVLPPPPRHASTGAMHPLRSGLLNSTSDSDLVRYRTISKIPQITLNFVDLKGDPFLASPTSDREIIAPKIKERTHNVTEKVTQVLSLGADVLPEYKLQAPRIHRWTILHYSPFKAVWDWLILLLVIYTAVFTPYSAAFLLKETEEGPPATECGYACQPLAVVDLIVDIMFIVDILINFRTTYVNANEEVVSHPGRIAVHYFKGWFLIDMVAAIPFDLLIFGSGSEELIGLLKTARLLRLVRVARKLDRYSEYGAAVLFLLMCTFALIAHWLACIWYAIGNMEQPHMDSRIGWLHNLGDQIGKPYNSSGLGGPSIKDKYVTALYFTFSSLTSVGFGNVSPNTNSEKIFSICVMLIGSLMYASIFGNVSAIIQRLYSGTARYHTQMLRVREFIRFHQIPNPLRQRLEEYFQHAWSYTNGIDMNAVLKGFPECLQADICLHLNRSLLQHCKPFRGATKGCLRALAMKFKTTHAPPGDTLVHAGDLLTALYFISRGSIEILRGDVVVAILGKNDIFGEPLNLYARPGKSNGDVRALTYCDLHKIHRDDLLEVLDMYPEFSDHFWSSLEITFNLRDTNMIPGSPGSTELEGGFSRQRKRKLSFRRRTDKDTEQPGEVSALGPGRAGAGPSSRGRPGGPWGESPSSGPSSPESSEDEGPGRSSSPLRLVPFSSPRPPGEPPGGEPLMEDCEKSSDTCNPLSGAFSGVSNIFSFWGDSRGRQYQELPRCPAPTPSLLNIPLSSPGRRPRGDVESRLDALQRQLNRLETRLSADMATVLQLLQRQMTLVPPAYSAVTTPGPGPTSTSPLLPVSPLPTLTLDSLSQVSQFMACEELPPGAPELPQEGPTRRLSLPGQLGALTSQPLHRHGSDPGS

Chain of hERG current (Q12809 whole entry): as above
Chain of CHK1 kinase (O14757 whole entry): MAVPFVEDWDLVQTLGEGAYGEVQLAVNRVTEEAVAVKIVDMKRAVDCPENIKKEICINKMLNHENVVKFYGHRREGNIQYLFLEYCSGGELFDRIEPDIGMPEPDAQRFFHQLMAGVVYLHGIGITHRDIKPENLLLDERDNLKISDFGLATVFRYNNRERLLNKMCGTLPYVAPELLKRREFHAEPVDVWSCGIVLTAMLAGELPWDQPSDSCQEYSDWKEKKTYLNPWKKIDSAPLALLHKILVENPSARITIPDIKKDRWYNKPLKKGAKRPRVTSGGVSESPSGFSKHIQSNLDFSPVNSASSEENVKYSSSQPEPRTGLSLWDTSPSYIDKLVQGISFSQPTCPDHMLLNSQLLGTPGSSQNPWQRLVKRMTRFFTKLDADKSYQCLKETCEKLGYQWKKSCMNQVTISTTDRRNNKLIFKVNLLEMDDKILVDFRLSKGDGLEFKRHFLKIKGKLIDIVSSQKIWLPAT

Structure (SMILES)	IC50 (hERG current)	Compound concentration in liposome solution [1]	Encapsulation ratio [1]	AUC(0-t) [2]	IC50 (ES-2 cells)	IC50 (CHK1 kinase)	IC50 (SJCRH30 cells)	IC50 (HT1080 cells)	IC50 (SW948 cells)	IC50 (BxPC3 cells)	selectivity ratio (hERG)
N#Cc1cnc(Nc2cc(-c3c(OCCCN)ccc4ccnn34)[nH]n2)cn1 [Example 6, 5-({5-[6-(3-aminopropoxy)pyrazolo[1,5-a]pyridin-7-yl]-1H-pyrazol-3-yl}amino)pyrazine-2-carbonitrile]	1300 nM	1880 µg/mL	100.0%	430 µg·h/mL	6.24 nM	0.21 nM	–	–	–	–	–
N#Cc1cnc(Nc2cc(-c3c(OCCCN)cnc4cccnc34)[nH]n2)cn1 [Example 8, 5-({5-[3-(3-aminopropoxy)-1,5-naphthyridin-4-yl]-1H-pyrazol-3-yl}amino)pyrazine-2-carbonitrile]	–	–	–	–	7.02 nM	0.5 nM	< 3 nM	9.1 nM	22.3 nM	7 nM	–
N#Cc1cnc(Nc2cc(-c3c(OC[C@@H]4CNCCO4)cnc4cccnc34)[nH]n2)cn1 [Example 12]	1000 nM	–	–	–	23.2 nM	0.38 nM	–	–	–	–	–
N#Cc1cnc(Nc2cc(-c3c(OCC4(CN)CC4)cnc4c3OCC4)[nH]n2)cn1 [Example 14, 5-{[5-(6-{[1-(aminomethyl)cyclopropyl]methoxy)-2,3-dihydrofuro[3,2-b]pyridin-7-yl)-1H-pyrazol-3-yl]amino}pyrazine-2-carbonitrile]	> 10000 nM	1940 µg/mL	99.9%	397 µg·h/mL	3.72 nM	0.27 nM	–	–	–	–	≥ 800
N#Cc1cnc(Nc2cc(-c3c(O[C@@H]4CCC[C@H](N)C4)cnc4c3OCC4)[nH]n2)cn1 [Example 24, 5-{[5-(6-{[(1R,3S)-3-aminocyclohexyl]oxy}-2,3-dihydrofuro[3,2-b]pyridin-7-yl)-1H-pyrazol-3-yl]amino}pyrazine-2-carbonitrile]	4800 nM	–	–	–	12.7 nM	0.31 nM	–	–	–	–	–
C[C@H](CN)COc1cnc2c(c1-c1cc(Nc3cnc(C#N)cn3)n[nH]1)OCC2 [Example 28, 5-[(5-{6-[(2R)-3-amino-2-methylpropoxy]-2,3-dihydrofuro[3,2-b]pyridin-7-yl}-1H-pyrazol-3-yl)amino]pyrazine-2-carbonitrile]	–	–	–	–	6.4 nM	0.43 nM	< 3 nM	< 3 nM	5 nM	< 3 nM	–
N#Cc1cnc(Nc2cc(-c3c(O[C@H]4C[C@H](N)[C@H]5C[C@H]54)cnc4c3OCC4)[nH]n2)cn1 [Example 29, 5-{[5-(6-{[(1R,2S,4S,5S)-4-aminobicyclo[3.1.0]hexan-2-yl]oxy)-2,3-dihydrofuro[3,2-b]pyridin-7-yl)-1H-pyrazol-3-yl]amino}pyrazine-2-carbonitrile]	> 10000 nM	–	–	–	29.4 nM	0.33 nM	–	–	–	–	–
N#Cc1cnc(Nc2cc(-c3c(OCC4(F)CNC4)cnc4cccnc34)[nH]n2)cn1 [Example 35, 5-[(5-{3-[(3-fluoroazetidin-3-yl)methoxy]-1,5-naphthyridin-4-yl}-1H-pyrazol-3-yl)amino]pyrazine-2-carbonitrile]	> 10000 nM	–	–	–	8 nM	0.6 nM	–	–	–	–	≥ 800
COc1cccc(OCCCN)c1-c1cc(Nc2cnc(C#N)cn2)n[nH]1 [Prexasertib, reference compound]	–	2160 µg/mL	–	–	8.55 nM	–	4.9 nM	14.9 nM	38.9 nM	9.5 nM	–
